Reference: patent publication US9220775B2, “Binding molecules specific for HER3 and uses thereof” (Medlmmune LLC, priority 2011, dated 2015)

Experiments:
SkBR3 cells = assay: CDC assay with human serum as source of complement; format: cell-based; conditions: any concentration, data not shown
From the text: ADCC is one recognized way through which a monoclonal antibody can confer its anti-tumor efficacy in vivo.

Daudi cells = assay: CDC assay against Daudi cells; format: cell-based; conditions: CD20-expressing cells, data not shown
Method: ADCC is one recognized way through which a monoclonal antibody can confer its anti-tumor efficacy in vivo. […] 2C2-YTE was tested in CDC assays using human serum as a source of complement.

[1] = system: HER3, pHER3 and pAKT in SW620, SW480, Colo205, LOVO, HCT15 and Caco-2 cells; assay: HRG ligand-dependent signaling in CRC tumor cell lines (Western blot); format: cell-based, human; conditions: antibodies 10 μg/mL, gefitinib 5 μM, HRG 50 ng/mL
Method: In the presence of the HER3 ligand heregulin (HRG), HER3 heterodimerizes with EGFR or HER2, which leads to phosphorylation of HER3 and transmission of an oncogenic signal via phosphoinositide 3 kinase (PI3K) and protein kinase B (PKB), also known as AKT. A collection of CRC models were characterized to determine which receptor tyrosine kinase, EGFR or HER2, is the major driver of signaling through HER3. […] Briefly, cells were seeded into 24-well plates at a density of 1.5×10^5 cells per well. […] After 5-6 hours of incubation at 37° C., HRG was added at 50 ng/mL into one set of cells for 15 minutes at 37° C. All cells were then washed with cold PBS and lysed by the addition of 60 μL of 2×SDS (sodium dodecyl sulfate) sample buffer (Invitrogen). Lysates were transferred to 1.5 mL tubes and boiled for 5 minutes followed by chilling on ice for 2 minutes. Equal volumes (20 μL) of protein samples were resolved in NuPAGE Novex Bis-Tris gels (Invitrogen) before transfer to polyvinylidene fluoride (PVDF) membranes (Invitrogen). […] After washing, protein bands were detected on X-ray film by using SuperSignal West Pico Chemiluminescent Substrate (Pierce/Thermo Scientific).

[2] = system: MDA-MB-361 xenograft tumors; assay: Orthotopic human MDA-MB-361 breast cancer xenograft model; format: in vivo, mouse; conditions: 2C2-YTE 30 mg/kg, trastuzumab and rhuMAb 2C4 10 mg/kg, lapatinib 100 mg/kg twice daily
Method: (§1) Orthotopic xenografts were established by injecting 5×10^6 cells per mouse (suspended in 50% matrigel) into the mammary fat pad on the right flank of 4 to 6-week-old athymic nu/nu mice. Estrogen pellets (0.36 mg) were placed under the skin of the left flank 1-2 days before cell injection. […] Lapatinib was administered by oral gavaging at 100 mg per kilogram body weight. Caliper measurements were used to calculate tumor volumes using the formula: tumor volume=π÷6(length×width×width) • for tumors grown in mice.

MCF-7 xenograft tumors = assay: Orthotopic human MCF-7 breast cancer xenograft model; format: in vivo, mouse; conditions: antibodies 10 mg/kg, paclitaxel 10 mg/kg i.v. every second day for ten days
Method: as §1, with “Human MCF-7 breast cancer cells were maintained at 37° C. in a 5% CO2 incubator in Optimem medium containing glutamax, 2.4/L sodium bicarbonate, Hepes and 5% fetal bovine serum. Orthotopic” for “Orthotopic”, “Paclitaxel” for “Lapatinib”, “intravenously” for “by oral gavaging”, “10” for “100”

BT-474 xenograft tumors = assay: Orthotopic human BT-474 breast cancer xenograft model; format: in vivo, mouse; conditions: antibodies 30 mg/kg, lapatinib 100 mg/kg oral
Method: as §1, with “1×10^7” for “5×10^6”

rituximab [reference compound] was tested, and the CDC activity (SkBR3 cells) was “None of the antibodies including 2C2-YTE showed any detectable CDC activity” and the CDC activity (Daudi cells) was “substantial cell-kill activity”.
In the case of pertuzumab [rhuMAb 2C4], the “HRG ligand-dependent signaling (HER3, pHER3, pAKT)” value [1] was “inhibit HRG ligand-dependent signaling” and the Anti-tumor efficacy [2] was “showed anti-tumor efficacy”.
With COc1cc2ncnc(Nc3ccc(F)c(Cl)c3)c2cc1OCCCN1CCOCC1 [gefitinib] the “HRG ligand-dependent signaling (HER3, pHER3, pAKT)” value [1] was “no effect”.
In the case of CC(=O)O[C@H]1C(=O)[C@@]2(C)[C@H]([C@H](OC(=O)c3ccccc3)[C@]3(O)C[C@H](OC(=O)[C@H](O)[C@@H](NC(=O)c4ccccc4)c4ccccc4)C(C)=C1C3(C)C)[C@]1(OC(C)=O)CO[C@@H]1C[C@@H]2O [paclitaxel], the Anti-tumor efficacy (MCF-7 xenograft tumors) was “clear anti-tumor efficacy”.
CS(=O)(=O)CCNCc1ccc(-c2ccc3ncnc(Nc4ccc(OCc5cccc(F)c5)c(Cl)c4)c3c2)o1 [lapatinib] was tested, and the Anti-tumor efficacy (BT-474 xenograft tumors) was “tumor stasis” and the Anti-tumor efficacy [2] was “showed anti-tumor efficacy”.
